The target of one data set is T1, AtSUT2 (Arabidopsis thaliana, UniProt O80605).
T1 construct: expressed in transfected cells; host or cells: Saccharomyces cerevisiae SEY6210, expression vector pDR196
T1 sequence (O80605 1-594): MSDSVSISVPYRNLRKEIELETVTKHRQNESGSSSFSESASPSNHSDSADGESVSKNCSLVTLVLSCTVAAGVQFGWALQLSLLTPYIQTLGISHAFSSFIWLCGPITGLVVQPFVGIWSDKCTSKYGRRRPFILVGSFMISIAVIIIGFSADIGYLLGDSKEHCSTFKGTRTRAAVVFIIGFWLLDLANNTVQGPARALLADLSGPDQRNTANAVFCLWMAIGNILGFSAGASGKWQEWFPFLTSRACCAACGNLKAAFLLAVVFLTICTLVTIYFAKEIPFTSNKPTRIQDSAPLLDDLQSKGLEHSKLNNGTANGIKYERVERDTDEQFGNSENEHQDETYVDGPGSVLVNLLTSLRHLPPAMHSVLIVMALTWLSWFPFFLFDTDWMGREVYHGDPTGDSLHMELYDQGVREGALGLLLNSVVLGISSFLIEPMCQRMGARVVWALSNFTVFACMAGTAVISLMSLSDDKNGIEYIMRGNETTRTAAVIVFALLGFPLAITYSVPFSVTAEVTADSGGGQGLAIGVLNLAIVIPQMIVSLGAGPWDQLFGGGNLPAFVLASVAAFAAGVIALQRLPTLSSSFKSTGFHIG
The data set can be described thus: substrate specificity and inhibition of saccharose uptake by AtSUT2 in yeast. The data set is classed as cell-based. The conditions noted are these: for competition with 14C-saccharose uptake: 1 mM saccharose, competitively with other sugars and sugar alcohols. As for the experimental part:
The saccharose uptake by AtSUT2 was pH-dependent, and the highest uptake rates were measured at a pH of 4.0. […] To determine the substrate specificity of AtSUT2, the saccharose uptake (1 mM saccharose) was measured competitively with other sugars and sugar alcohols.

The next data set has as its system SUT4. Put plainly: stimulation/inhibition of uptake of 14C-saccharose by means of SUT4 (FIG. 5C). The class given is cell-based. As for the experimental part: (§1) For the saccharose uptake tests, yeast was cultivated in a liquid minimal medium containing glucose, up to an OD623 of approximately 0.8. Cells were collected by means of centrifugation, washed in 25 mM sodium phosphate buffer (pH 5.5), and suspended in the same buffer at an OD623 of 20. The uptake tests were initiated by adding glucose ending at a final concentration of 10 mM to the yeast cells one minute before adding ^14C-saccharose. Following incubation at 30° C. while stirring, cells were collected by means of vacuum filtration on fiberglass filters (1-5 minutes), washed twice with 4 mL 10 mM saccharose (at the freezing point), and the radioactivity was determined using a liquid scintillation counter. […] A significant difference compared with the vector controls is apparent.
The stimulation of the uptake of ^14C-saccharose by means of SUT4 through glucose and the inhibition through an electron transport inhibitor (antimycin A and the protonophore CCCP is shown in FIG. 5C).

A further data set has as its system leaf blades. As to conditions: high affinity/low capacity system, cited from earlier work.
Data set [1] is described as follows: 14-C saccharose uptake tests in yeast strain SEY6210 expressing AtSUT2, StSUT1 or chimeric proteins. The data set is classed as cell-based. The conditions noted are these: for Km: AtSUT2 at a pH of 4. How it is done:
It was shown that the saccharose uptake by yeast cells that express AtSUT2 was linear in the first five minutes of the test. During this period, 0.1 nmol saccharose accumulated in 10^8 cells. […] By contrast, the transport rate with StSUT1-expressing cells was 400 times greater than with AtSUT2-expressing cells. […] Using the Michaelis-Menten equation and a nonlinear regression analysis, a KM value of 11.7±1.2 mM
Table: KM values for saccharose of the saccharose transporters StSUT1 and AtSUT2 as well as of chimeric proteins in which the N-terminal regions or central cytoplasmic loops are exchanged between the two transporters. The values were determined as mean values±standard errors from at least three different measurements. Different letters indicate significant differences (p<0.05).

Data set [2] is described as follows: 14C-saccharose uptake tests in yeast expressing SUT4 (SUSY7/ura3). The data set is classed as cell-based. As for the experimental part: The yeast strain SUSY7/ura3 is a modified version of SUSY7 (Riesmeier et al., EMBO J. (1992) 11, 4705-4713), which contains a deletion of a portion of the URA3 gene and, as a result, permits selection for uracil auxotrophy. Media that contained the 1.7 g/L yeast nitrogen base without amino acids (Difco), 2% saccharose, 20 mg/L tryptophane, and 1.5% agarose, pH 5.0, were used to analyze yeast growth on a saccharose medium.
as §1
Data for the kinetic analysis were obtained for SUT4 from a nonlinear regression of the uptake measurements using the Michaelis-Menten equation. Km was represented as an average of eight determinations using three independent transformants±standard deviation. The KM value for saccharose that was determined was 11.6±0.6 mM (at a pH of 5.5) and 5.9±0.8 mM (at a pH of 4.0) for SUT4 from arabidopsis. For SUT4 from Solanum tuberosum the KM value was 6.0±1.2 mM (pH 4.0) (see FIG. 5B).

A word on the Km: it is the substrate concentration at which the rate is half of its maximum.

Regarding `N#CC(C#N)=NNc1cccc(Cl)c1` [CCCP], on AtSUT2, the “inhibition of saccharose transport by means of AtSUT2” value is “inhibited”. Besides, in the data set on SUT4, the “effect on uptake of 14C-saccharose by means of SUT4” value was “inhibition”.

In the case of `O=C[C@H](O)[C@@H](O)[C@@H](O)[C@H](O)CO` [galactose], the “competition with 14C-saccharose uptake” value at AtSUT2 was “only the saccharose and to a lesser extent maltose were able to compete significantly”.

`OC[C@@H](O)[C@@H](O)[C@H](O)[C@H](O)CO[C@H]1O[C@H](CO)[C@@H](O)[C@H](O)[C@H]1O` [glucomannitol]: at AtSUT2, the “competition with 14C-saccharose uptake” value was “only the saccharose and to a lesser extent maltose were able to compete significantly”.

Consider `OC[C@H](O)[C@@H](O)[C@H](O)[C@H](O)CO[C@H]1O[C@H](CO)[C@@H](O)[C@H](O)[C@H]1O` [glucosorbitol], for which the “competition with 14C-saccharose uptake” value on AtSUT2 is “only the saccharose and to a lesser extent maltose were able to compete significantly”.

In the case of `OC[C@H]1O[C@H](OC[C@H]2OC(O)(CO)[C@@H](O)[C@@H]2O)[C@H](O)[C@@H](O)[C@@H]1O` (some centres unmarked) [isomaltulose], at AtSUT2, the “competition with 14C-saccharose uptake” value was “only the saccharose and to a lesser extent maltose were able to compete significantly”.

In the case of `OC[C@H]1O[C@@H](O[C@H]2[C@H](O)[C@@H](O)C(O)O[C@@H]2CO)[C@H](O)[C@@H](O)[C@H]1O` (some centres unmarked) [lactose], the “competition with 14C-saccharose uptake” value at AtSUT2 was “only the saccharose and to a lesser extent maltose were able to compete significantly”.

On to `OC[C@@H](O)[C@@H](O)[C@H](O)[C@H](O)CO` [mannitol], for which, at AtSUT2, the “competition with 14C-saccharose uptake” value is “only the saccharose and to a lesser extent maltose were able to compete significantly”.

In the case of `OC[C@H]1O[C@H](OC[C@H]2O[C@H](O[C@]3(CO)O[C@H](CO)[C@@H](O)[C@@H]3O)[C@H](O)[C@@H](O)[C@@H]2O)[C@H](O)[C@@H](O)[C@H]1O` [raffinose], the “competition with 14C-saccharose uptake” value on AtSUT2 is “only the saccharose and to a lesser extent maltose were able to compete significantly”.

Regarding `OC[C@H]1O[C@@](CO)(O[C@H]2O[C@H](CO)[C@@H](O)[C@H](O)[C@H]2O)[C@@H](O)[C@@H]1O` [saccharose], at AtSUT2, the “competition with 14C-saccharose uptake” value is reported as “able to compete significantly”. In the data set on leaf blades (read-out: Km of saccharose intake), the Km was 2.7 mM. In the data set with leaf blades, the “Vmax of saccharose intake” value is 0.7 nmol cm^−2 min^−1.

In the case of `OC[C@@H](O)[C@@H](O)[C@H](O)[C@@H](O)CO` [sorbitol], the “competition with 14C-saccharose uptake” value on AtSUT2 was “only the saccharose and to a lesser extent maltose were able to compete significantly”.

Consider antimycin A, for which the “inhibition of saccharose transport by means of AtSUT2” value against AtSUT2 is reported as “inhibited”. Further, the “effect on uptake of 14C-saccharose by means of SUT4” value in the data set with SUT4 is listed as “inhibition”.

B1: AtSUT2: SUT2 from Arabidopsis thaliana, SEQ ID no. 7; low-affinity saccharose transporter, sensor and/or regulator (protein, listed as Arabidopsis thaliana)
chain: MSDSVSISVPYRNLRKEIELETVTKHRQNESGSSSFSESASPSNHSDSADGESVSKNCSLVTLVLSCTVAAGVQFGWALQLSLLTPYIQTLGISHAFSSFIWLCGPITGLVVQPFVGIWSDKCTSKYGRRRPFILVGSFMISIAVIIIGFSADIGYLLGDSKEHCSTFKGTRTRAAVVFIIGFWLLDLANNTVQGPARALLADLSGPDQRNTANAVFCLWMAIGNILGFSAGASGKWQEWFPFLTSRACCAACGNLKAAFLLAVVFLTICTLVTIYFAKEIPFTSNKPTRIQDSAPLLDDLQSKGLEHSKLNNGTANGIKYERVERDTDEQFGNSENEHQDETYVDGPGSVLVNLLTSLRHLPPAMHSVLIVMALTWLSWFPFFLFDTDWMGREVYHGDPTGDSLHMELYDQGVREGALGLLLNSVVLGISSFLIEPMCQRMGARVVWALSNFTVFACMAGTAVISLMSLSDDKNGIEYIMRGNETTRTAAVIVFALLGFPLAITYSVPFSVTAEVTADSGGGQGLAIGVLNLAIVIPQMIVSLGAGPWDQLFGGGNLPAFVLASVAAFAAGVIALQRLPTLSSSFKSTGFHIG
As for B1, the “pH of highest uptake rates” value in data set [1] is listed as 4.0. In addition, in data set [1] (first five minutes of the test, in 10^8 cells), the “saccharose accumulated in 10^8 cells” value is on record as 0.1 nmol. Besides, the “uptake of saccharose compared with yeast cells expressing empty vector pDR196” value in data set [1] (p<0.05) is “significantly higher”. For the same molecule, the “saccharose uptake at a pH of 6” value in data set [1] (pH of 6) is recorded as “no further saccharose uptake was measured”. The Vmax in data set [1] (table) is given as 1.5 ± 0.1 nmol saccharose min^−1 10^8 ce; in data set [1] (yeast SEY6210) it was 1.5 nmol·min^−1 10^8 cells^−1. For the same molecule, the Km in data set [1] (yeast SEY6210) worked out at 11.7 mM.

B2: StSUT4: saccharose transporter SUT4 from Solanum tuberosum, amino acid sequence SEQ ID no. 28 (protein, listed as Solanum tuberosum)
chain: MPEIERHRTRHNRPAIREPVKPRVPLRLLFRVASVAGGIQFGWALQLSLLTPYVQELGIPHAWASIIWLCGPLSGLLVQPLVGHMSDKCTSRFGRRRPFIVAGAVSIMIAVLIIGFSADIGWLLGDRGEIKVRAIAAFVVGFWLLDVANNMTQGPCRALLADLTQKDHRRTRVANAYFSLFMAIGNILGFATGSYSGWFKIFPFTLNTACTINCANLKAAFIIDIIFIATTTCISISAANEQPLDPSRGSSHTREEIGESSHGQEEAFLWELFGIFKYFPGVVWVILLVTALTWIGWFPFLLFDTDWFGREIYGGEPNDGKNYSAGVRMGSLGLMLNSVLLGLTSLFMEKLCRKWGAGFTWGVSNVVMSLCFIAMLIITAVRSNIDIGQGLPPDGIVIAALVVFSILGIPLAITYSVPYALVSSRIDALGLGQGLSMGVLNLAIVFPQIVVSLGSGPWDELFGGGNSPAFVVAALSAFAGGLIAILAIPRTRVEKPKIFA
For B2, in data set [2] (FIG. 5A), the “functional saccharose transporter (uptake of 14C-saccharose vs vector controls)” value is given as “functional saccharose transporters”. The Km in data set [2] (pH 4.0, Michaelis-Menten nonlinear regression, average ± standard deviation) turned out to be 6 ± 1.2 mM.

B3: StSUT1: high-affinity saccharose transporter SUT1 from Solanum tuberosum, SEQ ID no. 23 (protein, listed as Solanum tuberosum)
chain: MENGTKREGLGKLTVSSSLQVEQPLAPSKLWKIIVVASIAAGVQFGWALQLSLLTPYVQLLGIPHKFASFIWLCGPISGMIVQPVVGYYSDNCSSRFGRRRPFIAAGAALVMIAVFLIGFAADLGHASGDTLGKGFKPRAIAVFVVGFWILDVANNMLQGPCRALLADLSGGKSGRMRTANAFFSFFMAVGNILGYAAGSYSHLFKVFPFSKTKACDMYCANLKSCFFIAIFLLLSLTTIALTLVRENELPEKDEQEIDEKLAGAGKSKVPFFGEIFGALKELPRPMWILLLVTCLNWIAWFPFFLYDTDWMAKEVFGGQVGDARLYDLGVRAGAMGLLLQSVVLGFMSLGVEFLGKKIGGAKRLWGILNFVLAICLAMTILVTKMAEKSRQHDPAGTLMGPTPGVKIGALLLFAALGIPLAATFSIPFALASIFSSNRGSGQGLSLGVLNLAIVVPQMLVSLVGGPWDDLFGGGNLPGFVVGAVAAAASAVLALTMLPSPPADAKPAVAMGGFH
On to B3, for which, in data set [1], the “KM value for saccharose, fold lower than AtSUT2” value is on record as 10 times and the “transport rate relative to AtSUT2-expressing cells” value amounted to 400 times. For the same molecule, in data set [1] (table), the Vmax is listed as 210.2 ± 5.7 nmol saccharose min^−1 10^8 ce. Besides, in data set [1] (yeast SEY6210), the Vmax came out at 210.2 nmol·min^−1 10^8 cells^−1 and the Km was determined as 1.7 mM.

The record behind these values is US20030163846A1, “Process for the genetic modification of a plant” (priority 2000, published 2003).
